The record followed here is ChEMBL document CHEMBL3612062, “Antitumor activity of endoperoxide-iron chelator conjugates-design, synthesis and biological evaluation” (Eur J Med Chem, 2015).

For one data set, the system named is HL-60. In words: Cytotoxicity against human HL60 cells after 48 hrs by MTT assay. Type of data set: functional, cell-based. The note with it: HL-60, 48 h. On the technique in general: Formazan colour is commonly taken as a measure of viable cells.
Another data set relates to A549. In words: Cytotoxicity against human A549 cells after 48 hrs by MTT assay. Format: functional, cell-based. The note with it: A549, 48 h.
For the next data set, the system named is SW480. In words: Cytotoxicity against human SW480 cells after 48 hrs by MTT assay. The note with it: SW480, 48 h. Type of data set: functional, cell-based.
Data set [1] concerns SMMC-7721. In words: Cytotoxicity against human SMMC7721 cells after 48 hrs by MTT assay. Type of data set: functional, cell-based. The note with it: SMMC-7721, 48 h.
Data set [2] is described as follows: Cytotoxicity against human HL7702 cells after 48 hrs by MTT assay. Type of data set: cell-based. The note with it: L02, 48 h.
Data set [3] is described as follows: Selectivity ratio of IC50 for human HL7702 cells to IC50 for human SMMC7721 cells. The note with it: HL7702 cells versus SMMC7721 cells, read-out: Ratio IC50. Type of data set: ADME, cell-based, SMMC-7721.
For data set [4], the system named is SMMC-7721. In words: Increase of cell survival in human SMMC7721 at 50 uM after 48 hrs by MTT assay in presence of deferoxamine. Type of data set: functional.
Data set [5] relates to SMMC-7721. In words: Induction of apoptosis in human SMMC7721 cells at 10 uM after 24 hrs using annexin-V FITC and propidium iodide staining by flow cytometry analysis. Type of data set: functional. Background: Flow cytometry measures light scatter and fluorescence of single cells or particles in a stream.
Data set [6] concerns SMMC-7721. In words: Induction of apoptosis in human SMMC7721 cells at 20 uM after 24 hrs using annexin-V FITC and propidium iodide staining by flow cytometry analysis. Format: functional.
Data set [7] is described as follows: Metal chelating activity of the compound assessed as formation of iron-compound complex at 100 uM using FeSO4 by UV-vis spectrometry. Format: physicochemical.
Data set [8] can be described thus: Metal chelating activity of the compound assessed as formation of iron-compound complex at 100 uM using FeCl3 by UV-vis spectrometry. Type of data set: physicochemical.
The nature of data set [9]: Binding affinity to ferric oxide assessed as dissociation degree at 2:1 ligand to metal ratio by UV-visible spectrophotometry.
For data set [10], the system named is SMMC-7721. In words: Induction of apoptosis in human SMMC7721 cells after 24 hrs using annexin-V FITC and propidium iodide staining by flow cytometry analysis. Format: functional, cell-based.
Data set [11] in a line: Stability of the compound-ferric oxide complex. Type of data set: physicochemical.
For data set [12], the system named is SMMC-7721. In words: Cytotoxicity against human SMMC7721 cells assessed activity loss of cells at 5 uM after 48 hrs by MTT assay. Format: functional.
Data set [13] in a line: Binding affinity to ferric oxide assessed as dissociation degree at 1:1 ligand to metal ratio by UV-visible spectrophotometry.

As for `Oc1ccc(N[C@H]2CC[C@]3(CC2)OO[C@]2(O3)C3CC4CC(C3)CC2C4)c2cccnc12` (mixture of isomers), the IC50 (commonly the concentration needed to halve the response being measured) with HL-60 was 8.1 µM; in the data set with A549, 15.9 µM; in the data set on SW480 it was above 50 µM; in the data set on SMMC-7721 [1] it was 7.3 µM; in data set [2] it was 25.7 µM. Moreover, the selectivity ratio in data set [3] was 3.52. Further, the Activity with SMMC-7721 [4] is 15%.
In the case of `O=C(O)c1ccc(O)c(O)c1` [PROTOCATECHUIC ACID], the IC50 (in the data set with HL-60; in the data set on A549; in the data set on SW480; in the data set on SMMC-7721 [1]; in data set [2]) was above 50 µM in each case.
On to `Oc1ccc(N[C@H]2CC[C@]3(CC2)OC[C@]2(O3)C3CC4CC(C3)CC2C4)c2cccnc12` (mixture of isomers), for which the IC50 with HL-60 is 9.2 µM; with A549 it was 17.2 µM; in the data set with SW480, above 50 µM; in the data set with SMMC-7721 [1], 12.6 µM; in data set [2] it was 30.1 µM. The selectivity ratio in data set [3] is 2.39.
As for `O=C1CCC2(CC1)OCC1(OO2)C2CC3CC(C2)CC1C3` (centres undefined), the IC50 (in the data set with HL-60; with A549; with SW480; with SMMC-7721 [1]; in data set [2]) was above 100 µM in each case.
As for `Oc1ccc(N[C@H]2CC[C@@]3(CC2)OC[C@]2(OO3)C3CC4CC(C3)CC2C4)c2cccnc12` (mixture of isomers), the IC50 in the data set on HL-60 is 6.6 µM; in the data set on A549 it was 23.9 µM; in the data set with SW480 it was above 50 µM; with SMMC-7721 [1], 11 µM; in [2], 36 µM. In data set [3], the selectivity ratio was determined as 3.28. In the data set on SMMC-7721 [4], the Activity stood at 15%.
In the case of `Nc1ccc(O)c2ncccc12`, the IC50 is 13.8 µM in the data set on HL-60; above 50 µM with A549; above 50 µM with SW480; above 50 µM in the data set on SMMC-7721 [1]; above 50 µM in [2].
For `O=C(NO)[C@H]1CC[C@]2(CC1)OO[C@]1(O2)C2CC3CC(C2)CC1C3` (mixture of isomers), the IC50 (with HL-60; in the data set on A549; in the data set on SW480; with SMMC-7721 [1]; in [2]) was above 50 µM throughout.
With `O=C(N[C@H]1CC[C@@]2(CC1)OC[C@]1(OO2)C2CC3CC(C2)CC1C3)c1ccc(O)c(O)c1` (mixture of isomers), the IC50 is 34.8 µM in the data set with HL-60; above 50 µM with A549; above 50 µM in the data set on SW480; above 50 µM in the data set with SMMC-7721 [1]; above 50 µM in data set [2]. Also, the Activity in the data set with SMMC-7721 [4] is 10%.
Take `O=C(N[C@H]1CC[C@]2(CC1)OC[C@]1(O2)C2CC3CC(C2)CC1C3)c1ccc(O)c(O)c1` (mixture of isomers): the IC50 with HL-60 was 35.5 µM; in the data set on A549 it was above 50 µM; with SW480, above 50 µM; in the data set with SMMC-7721 [1], above 50 µM; in data set [2], above 50 µM.
Consider `Oc1ccc(NC2CCC3(CC2)OOC2(OO3)C3CC4CC(C3)CC2C4)c2cccnc12` (mixture of isomers), for which the IC50 is 6 µM in the data set with HL-60; 11.8 µM in the data set with A549; above 50 µM in the data set with SW480; 7.5 µM with SMMC-7721 [1]; 27.7 µM in data set [2]. Further, the selectivity ratio in data set [3] came out at 3.71. Also, the Activity with SMMC-7721 [4] is 15%; in the data set with SMMC-7721 [5], 12.2%; with SMMC-7721 [6], 33.2%; in data set [7] it was “Active”; in [8] it was “Active”; in [9], 18%. The Activity entry in the data set on SMMC-7721 [10] was “Dose-dependent effect”. For the same molecule, the Stability entry in data set [11] is reported as “Stable”.
Take `Oc1ccc(NC2CCC3(CC2)OCC2(CO3)C3CC4CC(C3)CC2C4)c2cccnc12` (mixture of isomers): the half-maximal inhibitory concentration (IC50) is 12.9 µM in the data set with HL-60; 45.6 µM with A549; above 50 µM in the data set on SW480; 20.3 µM in the data set on SMMC-7721 [1]; 41.9 µM in data set [2]. The selectivity ratio in [3] is 2.06.
As for `O=C(NO)[C@H]1CC[C@@]2(CC1)OC[C@]1(OO2)C2CC3CC(C2)CC1C3` (mixture of isomers), the IC50 (in the data set on HL-60; with A549; in the data set on SW480; in the data set on SMMC-7721 [1]; in data set [2]) was above 50 µM in each case.
In the case of `O=C(O)[C@H]1CC[C@@]2(CC1)OC[C@]1(OO2)C2CC3CC(C2)CC1C3`, the IC50 (with HL-60; in the data set with A549; in the data set with SW480; in the data set with SMMC-7721 [1]; in data set [2]) was above 100 µM throughout.
Regarding `O=C(NO)C1CCC2(CC1)OOC1(OO2)C2CC3CC(C2)CC1C3` (centres undefined), the IC50 (in the data set with HL-60; with A549; with SW480; in the data set on SMMC-7721 [1]; in [2]) was above 50 µM throughout.
In the data set with SMMC-7721 [12], `CC(=O)N(O)CCCCCNC(=O)CCC(=O)N(O)CCCCCNC(=O)CCC(=O)N(O)CCCCCN` [DEFEROXAMINE] displayed an Activity of 5%.
As to `C[C@H]1[C@@H](O)O[C@@H]2O[C@@]3(C)CC[C@H]4[C@H](C)CC[C@@H]1[C@@]24OO3` [ARTENIMOL], the IC50 is 18.7 µM in the data set on HL-60; 30.1 µM with A549; above 100 µM in the data set on SW480; 13.8 µM in the data set on SMMC-7721 [1]; 34.9 µM in data set [2]. Besides, in data set [3], the selectivity ratio is 2.52.
As for `O=C1CCC2(CC1)OOC1(O2)C2CC3CC(C2)CC1C3` (centres undefined), the IC50 (in the data set with HL-60; in the data set on A549; in the data set with SW480; in the data set on SMMC-7721 [1]; in data set [2]) was above 100 µM in each case.
Regarding `O=C1CCC2(CC1)OOC1(OO2)C2CC3CC(C2)CC1C3`, the IC50 (with HL-60; in the data set with A549; with SW480; in the data set with SMMC-7721 [1]; in data set [2]) was above 100 µM each time.
On to `O=C(NC1CCC2(CC1)OCC1(CO2)C2CC3CC(C2)CC1C3)c1ccc(O)c(O)c1` (mixture of isomers), for which the IC50 with HL-60 was 30.1 µM; with A549, above 50 µM; in the data set on SW480, above 50 µM; in the data set on SMMC-7721 [1] it was above 50 µM; in [2], above 50 µM.
As to `O=C(N[C@H]1CC[C@]2(CC1)OO[C@]1(O2)C2CC3CC(C2)CC1C3)c1ccc(O)c(O)c1` (mixture of isomers), the IC50 with HL-60 is 31.2 µM; with A549, above 50 µM; with SW480 it was above 50 µM; in the data set on SMMC-7721 [1] it was above 50 µM; in data set [2], above 50 µM. For the same molecule, the Activity in the data set on SMMC-7721 [4] worked out at 10%.
`O=C(O)[C@H]1CC[C@]2(CC1)OO[C@]1(O2)C2CC3CC(C2)CC1C3`: the IC50 (in the data set on HL-60; with A549; in the data set with SW480; in the data set with SMMC-7721 [1]; in data set [2]) was above 100 µM each time.
For `O=C(NC1CCC2(CC1)OOC1(OO2)C2CC3CC(C2)CC1C3)c1ccc(O)c(O)c1` (centres undefined), the half-inhibitory concentration (IC50) with HL-60 is 25 µM; in the data set on A549, above 50 µM; in the data set with SW480, above 50 µM; with SMMC-7721 [1] it was 33.8 µM; in data set [2] it was above 50 µM. For the same molecule, the Activity with SMMC-7721 [4] is 10%; in data set [7], “Active”; in [8], “Active”; in [13], 36%. For the same molecule, the Stability result in data set [11] is given as “Stable”.
With `O=C(O)C1CCC2(CC1)OOC1(OO2)C2CC3CC(C2)CC1C3` (centres undefined), the IC50 (in the data set with HL-60; in the data set with A549; with SW480; in the data set with SMMC-7721 [1]; in data set [2]) was above 100 µM in each case.
